Experimental data from patent US20240254135A1, “POLYPHENOL COMPOUNDS” (Epirium Bio Inc., priority 2022, published 2024).

Test: Pharmacokinetics: quantitative determination in mice plasma (LCMS)
Format: in vivo, C57BL/6 Mice
Settings: C57BL/6, mouse, 10 mg/kg PO single dose, 10% NMP vehicle; for AUC(0-t): read-out: AUC0-4 h
Description: C57BL/6 Mice, Age 7-9 weeks, body weight range 20-25 g were used. The mice were fasted overnight. Mice were dosed once a day for a single day at 10 mg/kg, 10 mg/kg. 6 time-points were used for whole blood. 10% NMP was used as a vehicle. 9 animals were used per treatment, with three groups of three animals each. Group 1 had time points at 15 and 60 minutes, Group 2 had time points at 30 and 120 minutes, and Group 3 had time points at 90 and 240 minutes. An Oral (PO) route was used. Plasma and brain samples were collected (brain sample collected at terminal time point). Plasma was collected through the centrifugation of whole blood at 10,000 rpm for 10 minutes at 4° C. Samples were stored at −80° C. until processing.
1.00 mg/mL in 100% MeOH PP vials (prepared at RT yellow light) at 2-8° C. were used as stock solution. 12.22-50000 ng/ml using 80% MeOH PP vials (prepared at RT yellow light) at 2-8° C. were used as working solution. 0.98-4000 ng/ml (prepared at RT yellow light) was used for the curve range. For Compounds 75b and 78a, 1.00 mg/mL of Compound 79 in 100% methanol Ria vials (Prepared at RT yellow light) was used as IS stock solution, and 60 ng/ml of Compound 79 in 80% methanol (Prepared at RT yellow light) was used as IS working solution. For Compound 76b, 1.00 mg/mL of Compound 44 in 100% methanol Ria vials (Prepared at RT yellow light) was used as IS stock solution, and 60 ng/ml of Compound 44 in 80% methanol (Prepared at RT yellow light) was used as IS working solution. A linear, 1/x2 fit type was used. The injection volume was 15 μL. Mobile Phase A was 0.1% Formic Acid in water at room temperature. Mobile Phase B was 100% methanol at room temperature. R0 wash solution was 80% methanol at room temperature. R^3 wash solution was IPA/MeOH/ACN/water (1:1:1:1) at room temperature. The column was Agilent Eclipse 50*2.1 mm 1.8 μm and the instrument was Shimadzu LC-40 UPLC and AB Sciez 6500+ with LCMS002.
For Compound 75b, using a pipette with Methanol-rinsed pipette tips, 25 μL of each sample was aliquoted (calibration curve sample, QC samples and blank matrix) to labeled 12×75-mm glass tubes. Using Methanol-rinsed pipette tips, 5.0 μL of IS of conc. 60 ng (Compound 79) was aliquoted to each standards and samples except Blank. All tubes were mixed on a multi-tube vortex for approximately 30 seconds. 50 μL of 10 mM Sodium bicarbonate were added. 1 ml of Ethyl Acetate was added. All tubes were mixed on a multi-tube vortex for approximately 5 minutes then centrifuged for 10 min at 5,000 rpm, 4° C. The sample was kept in methanol containing dry ice for a few seconds to freeze the Aqueous layer (flash freeze method). The upper organic layer was poured from the frozen tubes into the labeled 12×75-mm glass tubes then evaporated to dryness under nitrogen using Liquid Evaporator (30° C., ˜15 psi, ˜10 mins). 200 μl of reconstitution solution (0.1% Acetic acid:MeOH (60:40 v/v) were added into each tube. Samples were vortexed for 30 seconds then transferred to amber glass injection vials for injection.
For Compounds 76b and 78a, using a pipette, 25 μL of each sample were aliquoted (calibration curve sample, QC samples and blank matrix) to labeled 1.5 ml eppendorfs. Using a pipette, 5.0 μL of IS of conc. 100 ng (Cocktail IS) was aliquoted to each standards and samples except Blank. All tubes were mixed on a multi-tube vortex for approximately 30 seconds. 1 ml of tert-butyl methyl ether (TBME) was added. All tubes were mixed on a multi-tube vortex for approximately 5 minutes then centrifuged for 10 min at 10,000 rpm, 4° C. The sample was kept in methanol containing dry ice for few seconds to freeze the Aqueous layer (flash freeze method). The upper organic layer was poured from the frozen tubes into the labeled 12×75-mm rial vials then vaporated to dryness under nitrogen using Liquid Evaporator (30° C., −15 psi, 10 mins). 200 μl of reconstitution solution (10 mM Ammonium Formate: MeOH) (40:60 v/v) was added into each tube. […]

Row | Cmax [ng/mL] | Tmax [min] | AUC(0-t) [ng·h/mL] | Structure (SMILES)
1 | 49.8 | 15 | 59.5 | Oc1cc(O)c2c(c1)OC(c1ccccc1)C(O)C2 (single isomer, unassigned) [Compound 78a, 2-phenylchromane-3,5,7-triol]
2 | 138 | 90 | 133 | COc1cc(C2Oc3ccccc3CC2O)ccc1F (single isomer, unassigned) [Compound 75b, 2-(4-fluoro-3-methoxyphenyl)chroman-3-ol]
3 | 89.3 | 15 | 45.7 | Oc1cc(O)c2c(c1)OC(c1ccc(O)c(F)c1)C(O)C2 (single isomer, unassigned) [Compound 76b, 2-(3-fluoro-4-hydroxyphenyl)chromane-3,5,7-triol]
